{"source": "patent US8647676B2", "about": "“Antimicrobial composition from copepods” (priority 2008, dated 2014)", "origin": "cited, not measured here", "conditions": "Iwamoto et al. Tetrahedron, 1999 vol. 55 p. 14353", "data": [{"substance": "penostatin", "values": [{"measurement": "cytotoxicity (in words)", "value": "mild cytotoxic"}]}]}
